Data from paper PMC9124243 (Cell chemical biology, 2021).

What was measured:
[1] = target: full-length apo DnaK (DnaK^FL) (Mycobacterium tuberculosis, UniProt P9WMJ9, T175A); format: binding
[2] = target: Mtb DnaK oligomers and DnaK-GrpE complex (Mycobacterium tuberculosis, UniProt P9WMJ9, T175A); format: binding
[3] = system: DnaK^NBD; format: binding; conditions: ITC
[4] = target: Mtb DnaK mutants (Mycobacterium tuberculosis, UniProt P9WMJ9, R127A); format: biochemical
[5] = target: Mtb DnaK mutants (Mycobacterium tuberculosis, UniProt P9WMJ9); format: biochemical
[6] = target: Mtb DnaK mutants (Mycobacterium tuberculosis, UniProt P9WMJ9, E514A); format: biochemical
[7] = target: apo, ATP-bound or ADP-bound DnaK T175A (Mycobacterium tuberculosis, UniProt P9WMJ9, T175A)
[8] = target: Mtb DnaK Phe400Ala, Thr401Ala (Mycobacterium tuberculosis, UniProt P9WMJ9, F400A); format: binding

Compound: CNC(=O)[C@H]1O[C@@H](n2cnc3c(NCc4cccc(I)c4)nc(Cl)nc32)[C@H](O)[C@@H]1O [MECA, 2Cl-IB-MECA]
- binding to DnaK alone [1]: does not bind to DnaK alone
- DnaK-GrpE complex formation [2]: not affected

Compound: CCC[C@H](NC(=O)[C@@H]1[C@H]2CCC[C@H]2CN1C(=O)[C@@H](NC(=O)[C@@H](NC(=O)c1cnccn1)C1CCCCC1)C(C)(C)C)C(=O)C(=O)NC1CC1 [TP, Telaprevir]
- interaction with DnaK^NBD [3]: no interaction
- stoichiometry TP: DnaK [1]: ~ 0.5
- ATPase activity of DnaK Arg127Ala with excess TP [4]: tolerance to excess TP
- ATPase activity of DnaK lacking last ~110 residues (A513-K625) [5]: still disrupted ATPase activity
- increase in the IC50 value compared to wild-type [6]: 1.4 fold
- oligomeric state of apo DnaK [2]: inhibited formation of dimers and higher order oligomers
- cleavage of DnaK by proteinase K [7]: protects full-length DnaK from cleavage

Compound: FL-β-Ala-Asn-Arg-Leu-Leu-Leu-Thr-Gly-OH [FL-NR]
- EC50 for Phe400Ala relative to WT [8]: ~ 40 fold
